# Experimental data: patent publication US7396837B2, “Antitumoral analogs of lamellarins” (Pharma Mar, S.A.U., priority 2002, dated 2008)
# Like-named read-outs stand apart in the source and are kept apart here.
# Tests used:
# Format in all cases: cell-based
# K-562 = experiment: SRB colorimetric cell growth inhibition assay, K-562; settings: for CC50: LC=cell killing (cytotoxic effect), read-out: LC50 K-562; for IC (TGI): TGI=total growth inhibition (cytostatic effect), read-out: TGI K-562; for GI50: GI=growth inhibition, read-out: GI50 K-562
# Outline: (§1)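 Continuous drug exposure of human cancer cells; SRB protein stain read-out; triplicate wells, mean ± SD; GI, TGI, LC computed.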
# A-549 = experiment: SRB colorimetric cell growth inhibition assay, A-549; settings: for GI50: GI=growth inhibition, read-out: GI50 A-549; for CC50: LC=cell killing (cytotoxic effect), read-out: LC50 A-549; for IC (TGI): TGI=total growth inhibition (cytostatic effect), read-out: TGI A-549
# Outline: as §1
# SK-MEL-28 = experiment: SRB colorimetric cell growth inhibition assay, SK-MEL-28; settings: for CC50: cell killing (cytotoxic effect), read-out: LC50 MEL-28; for GI50: GI=growth inhibition, read-out: GI50 MEL-28
# Outline: as §1
# HT-29 = experiment: SRB colorimetric cell growth inhibition assay, HT-29; settings: for GI50: GI=growth inhibition, read-out: GI50 HT-29; for CC50: LC=cell killing (cytotoxic effect), read-out: LC50 HT-29; for IC (TGI): TGI=total growth inhibition (cytostatic effect), read-out: TGI HT-29
# Outline: as §1
# LoVo = experiment: SRB colorimetric cell growth inhibition assay, LoVo; settings: for CC50: LC=cell killing (cytotoxic effect), read-out: LC50 LOVO; for IC (TGI): TGI=total growth inhibition (cytostatic effect), read-out: TGI LOVO; for GI50: GI=growth inhibition, read-out: GI50 LOVO
# Outline: as §1
# LoVo-Dox = experiment: SRB colorimetric cell growth inhibition assay, LoVo-Dox (MDR); settings: LOVO-DOX; for CC50: LC=cell killing (cytotoxic effect), read-out: LC50 LOVO-DOX; for IC (TGI): TGI=total growth inhibition (cytostatic effect), read-out: TGI LOVO-DOX; for GI50: GI=growth inhibition, read-out: GI50 LOVO-DOX
# Outline: as §1
# DU-145 = experiment: SRB colorimetric cell growth inhibition assay, DU-145; settings: for GI50: GI=growth inhibition, read-out: GI50 DU-145; for CC50: cell killing (cytotoxic effect), read-out: LC50 DU-145
# Outline: as §1
# LNCaP = experiment: SRB colorimetric cell growth inhibition assay, LNCaP; settings: LN-caP; for CC50: cell killing (cytotoxic effect), read-out: LC50 LN-caP; for IC (TGI): total growth inhibition (cytostatic effect), read-out: TGI LN-caP; for GI50: GI=growth inhibition, read-out: GI50 LN-caP
# Outline: as §1
# SK-BR-3 = experiment: SRB colorimetric cell growth inhibition assay, SK-BR-3; settings: for CC50: cell killing (cytotoxic effect), read-out: LC50 SK-BR-3; for GI50: GI=growth inhibition, read-out: GI50 SK-BR-3
# Outline: as §1
# IGROV = experiment: SRB colorimetric cell growth inhibition assay, IGROV; settings: IGROV; for GI50: GI=growth inhibition, read-out: GI50 IGROV; for CC50: cell killing (cytotoxic effect), read-out: LC50 IGROV
# Outline: as §1
# IGROV-ET = experiment: SRB colorimetric cell growth inhibition assay, IGROV-ET (ET-743 resistant); settings: IGROV-ET; for GI50: GI=growth inhibition, read-out: GI50 IGROV-ET; for CC50: cell killing (cytotoxic effect), read-out: LC50 IGROV-ET
# Outline: as §1
# PANC-1 = experiment: SRB colorimetric cell growth inhibition assay, PANC-1; settings: for CC50: LC=cell killing (cytotoxic effect), read-out: LC50 PANC-1; for IC (TGI): TGI=total growth inhibition (cytostatic effect), read-out: TGI PANC-1; for GI50: GI=growth inhibition, read-out: GI50 PANC-1
# Outline: as §1
# SKOV-3 = experiment: SRB colorimetric cell growth inhibition assay, SKOV-3; settings: Homo sapiens; for GI50: SK-OV-3, SKOV-3, GI=growth inhibition, read-out: GI50 SKOV-3; for LC50 (concentration causing 50% net cell killing) / IC (TGI): SK-OV-3, SKOV-3; for LC50 (concentration causing 50% net cell killing): cell killing (cytotoxic effect), read-out: LC50 SKOV-3; for IC (TGI): total growth inhibition (cytostatic effect), read-out: TGI SKOV-3
# Outline: (§2)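 Growth inhibition (GI), total growth inhibition (TGI, cytostatic) and lethal concentration (LC, cytotoxic) come from an SRB-based colorimetric measure of growth and viability. Data are triplicate-well means ± SD.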
# [1] = SRB colorimetric cell growth inhibition assay, H-MEC-1; settings: human, H-MEC-1 cells; H-MEC-1; cell killing (cytotoxic effect); read-out: LC50 H-MEC-1
# Outline: as §2
# H-MEC-1 = experiment: as above; settings: Homo sapiens, HMEC-1, H-MEC-1; for GI50: GI=growth inhibition, read-out: GI50 H-MEC-1; for IC (TGI): total growth inhibition (cytostatic effect), read-out: TGI H-MEC-1
# Outline: as §2
# [2] = Homo sapiens, SK-MEL-28, MEL-28
# [3] = total growth inhibition (cytostatic effect)
smiles,measurement,setting,value
COc1cc(-c2c3c4cc(OC)c(OC(=O)[C@@H](N)Cc5ccccc5)cc4oc(=O)c3n3ccc4c(OC(=O)[C@@H](N)Cc5ccccc5)c(OC)c(OC)cc4c23)ccc1OC(=O)[C@@H](N)Cc1ccccc1 [Compound 31],CC50,"K-562; Homo sapiens, K562, K-562",7620 nM
same,IC (TGI),"K-562; Homo sapiens, K562, K-562",2470 nM
same,GI50,K-562; K-562,410 nM
same,GI50,A-549; A-549,433 nM
same,CC50,"A-549; Homo sapiens, A549, A-549",4600 nM
same,IC (TGI),"A-549; Homo sapiens, A549, A-549",1420 nM
same,CC50,SK-MEL-28; [2],7620 nM
same,GI50,SK-MEL-28; MEL-28,482 nM
same,TGI MEL-28,"SK-MEL-28; MEL-28, total growth inhibition (cytostatic effect)",7.62E−06 Molar
same,GI50,HT-29; HT-29,7620 nM
same,CC50,"HT-29; Homo sapiens, HT-29, HT-29",7620 nM
same,IC (TGI),"HT-29; Homo sapiens, HT-29, HT-29",7620 nM
same,CC50,"LoVo; Homo sapiens, LoVo",7620 nM
same,IC (TGI),"LoVo; Homo sapiens, LoVo",5350 nM
same,GI50,LoVo; LOVO,1980 nM
same,CC50,LoVo-Dox; Homo sapiens,7620 nM
same,IC (TGI),LoVo-Dox; Homo sapiens,7620 nM
same,GI50,LoVo-Dox,1490 nM
same,GI50,DU-145; DU-145,301 nM
same,CC50,DU-145; DU-145,7620 nM
same,TGI DU-145,"DU-145; DU-145, total growth inhibition (cytostatic effect)",8.61E−07 Molar
same,CC50,"LNCaP; Homo sapiens, LNCaP",3430 nM
same,IC (TGI),"LNCaP; Homo sapiens, LNCaP",1450 nM
same,GI50,LNCaP,548 nM
same,CC50,"SK-BR-3; Homo sapiens, SK-BR-3, SK-BR-3",7620 nM
same,GI50,SK-BR-3; SK-BR-3,1800 nM
same,TGI SK-BR-3,"SK-BR-3; SK-BR-3, total growth inhibition (cytostatic effect)",7.62E−06 Molar
same,GI50,IGROV,1260 nM
same,CC50,IGROV,7620 nM
same,TGI IGROV,IGROV; [3],7.62E−06 Molar
same,GI50,IGROV-ET,1390 nM
same,CC50,IGROV-ET,7620 nM
same,TGI IGROV-ET,IGROV-ET; [3],4.00E−06 Molar
same,CC50,"PANC-1; Homo sapiens, PANC-1, PANC-1",7620 nM
same,IC (TGI),"PANC-1; Homo sapiens, PANC-1, PANC-1",7620 nM
same,GI50,PANC-1; PANC-1,1960 nM
same,GI50,SKOV-3,524 nM
same,LC50 (concentration causing 50% net cell killing),SKOV-3,7620 nM
same,IC (TGI),SKOV-3,4220 nM
same,LC50 (concentration giving 50% net cell killing),[1],565 nM
same,GI50,H-MEC-1,119 nM
same,IC (TGI),H-MEC-1,260 nM
COc1cc(-c2c3c4cc(OC)c(OC(=O)[C@@H]5CCCN5)cc4oc(=O)c3n3ccc4c(OC(=O)[C@@H]5CCCN5)c(OC)c(OC)cc4c23)ccc1OC(=O)[C@@H]1CCCN1 [Compound 30],GI50,"K-562; Homo sapiens, K562, K-562",204 nM
same,CC50,"K-562; Homo sapiens, K562, K-562",8600 nM
same,IC (TGI),"K-562; Homo sapiens, K562, K-562",1100 nM
same,GI50,"A-549; Homo sapiens, A549, A-549",341 nM
same,CC50,"A-549; Homo sapiens, A549, A-549",6640 nM
same,IC (TGI),"A-549; Homo sapiens, A549, A-549",1270 nM
same,GI50,SK-MEL-28; [2],251 nM
same,CC50,SK-MEL-28; [2],4420 nM
same,IC (TGI),"SK-MEL-28; Homo sapiens, SK-MEL-28, MEL-28, total growth inhibition (cytostatic effect), read-out: TGI MEL-28",1080 nM
same,GI50,"HT-29; Homo sapiens, HT-29, HT-29",2810 nM
same,CC50,"HT-29; Homo sapiens, HT-29, HT-29",8600 nM
same,IC (TGI),"HT-29; Homo sapiens, HT-29, HT-29",5060 nM
same,GI50,"LoVo; Homo sapiens, LoVo",383 nM
same,CC50,"LoVo; Homo sapiens, LoVo",3770 nM
same,IC (TGI),"LoVo; Homo sapiens, LoVo",1060 nM
same,GI50,LoVo-Dox; Homo sapiens,683 nM
same,CC50,LoVo-Dox; Homo sapiens,5220 nM
same,IC (TGI),LoVo-Dox; Homo sapiens,1930 nM
same,GI50,"DU-145; Homo sapiens, DU-145, DU-145",53.8 nM
same,CC50,"DU-145; Homo sapiens, DU-145, DU-145",3840 nM
same,IC (TGI),"DU-145; Homo sapiens, DU-145, DU-145, total growth inhibition (cytostatic effect), read-out: TGI DU-145",265 nM
same,GI50,"LNCaP; Homo sapiens, LNCaP",275 nM
same,CC50,"LNCaP; Homo sapiens, LNCaP",4900 nM
same,IC (TGI),"LNCaP; Homo sapiens, LNCaP",1270 nM
same,GI50,"SK-BR-3; Homo sapiens, SK-BR-3, SK-BR-3",498 nM
same,CC50,"SK-BR-3; Homo sapiens, SK-BR-3, SK-BR-3",6390 nM
same,IC (TGI),"SK-BR-3; Homo sapiens, SK-BR-3, SK-BR-3, total growth inhibition (cytostatic effect), read-out: TGI SK-BR-3",1610 nM
same,GI50,IGROV; Homo sapiens,350 nM
same,CC50,IGROV; Homo sapiens,6990 nM
same,IC (TGI),"IGROV; Homo sapiens, total growth inhibition (cytostatic effect), read-out: TGI IGROV",1470 nM
same,GI50,IGROV-ET; Homo sapiens,450 nM
same,CC50,IGROV-ET; Homo sapiens,6630 nM
same,IC (TGI),"IGROV-ET; Homo sapiens, total growth inhibition (cytostatic effect), read-out: TGI IGROV-ET",1830 nM
same,GI50,"PANC-1; Homo sapiens, PANC-1, PANC-1",805 nM
same,CC50,"PANC-1; Homo sapiens, PANC-1, PANC-1",5640 nM
same,IC (TGI),"PANC-1; Homo sapiens, PANC-1, PANC-1",2180 nM
same,GI50,SKOV-3,348 nM
same,LC50 (concentration causing 50% net cell killing),SKOV-3,5360 nM
same,IC (TGI),SKOV-3,1240 nM
same,LC50 (concentration giving 50% net cell killing),[1],840 nM
same,GI50,H-MEC-1,70.5 nM
same,IC (TGI),H-MEC-1,241 nM
